Results from patent publication US20180055055A1, “FOLIAR APPLICATIONS FOR CONTROLLING LEPIDOPTERAN PESTS FOR FRUITS AND/OR FRUIT TREES” (priority 2016, published 2018).

Test system: Grapholyta molesta
Assay: Open field trial, foliar application on peach trees against Grapholyta molesta
Assay type: in vivo
Conditions: timing ABC; for Alive larvae per 100 fruit / Deep holes per 100 fruit: 12 days after final application; for % control on alive larvae / % control on deep holes: Abbott equation
Text: Another open field trial is set up to evaluate the efficacy and selectivity of Compound A against Grapholyta molesta for peach trees (Amiga variety). The trial is designed as randomized complete block with four replications. Compound A is applied only twice (Timing A, and B), while all other treatments are applied three times (Timing A, B and C) where each application is about one week apart.
Treatments are sprayed using a mist spray multi plot equipment, designed for efficacy trials with four independent series of 8 nozzles (ALBUZ, ATR 80 Yellow) and calibrated to apply a spray volume of 1200 L/ha at a pressure of 450 Kpa. The applications target the egg lay stage of second generation at the crop growth stage of BBCH 73-75, 75-76 and 76-77 respectively for timing A, B and C. At twelve days after the final application, the efficacy assessment is carried out on 100 fruits/plot assessing the number of damaged fruits (distinct as superficial stings and deep holes) and the number of alive larvae.
Results are shown in Table 3, where data assessed are also transformed to a percentage of control using Abbott equation. Data are examined according to the Bartlett's test for homogeneity of variance. The treatment means of the assessment data are calculated and compared using Tukey's HSD test (p=0.05). In the untreated there are 18 alive larvae found in 100 fruits/plot, which represented a high infestation situation

[1] = 680 g ai/ha, first listed formulation (Table 3 order: (1) CS 200 g ai/L)
[2] = 680 g ai/ha, second listed formulation (Table 3 order: (2) EC 225 g ai/L)
[3] = 850 ai/ha, second listed formulation (Table 3 order: (2) EC 225 g ai/L)
[4] = 850 g ai/ha, first listed formulation (Table 3 order: (1) CS 200 g ai/L)
[5] = 1020 g ai/ha, first listed formulation (Table 3 order: (1) CS 200 g ai/L)
[6] = 1020 g ai/ha, second listed formulation (Table 3 order: (2) EC 225 g ai/L)

COP(=S)(OC)Oc1nc(Cl)c(Cl)cc1Cl [Chlorpyriphos-Methyl]
Alive larvae per 100 fruit [1]: 0.0 b per 100 fruit | Deep holes per 100 fruit [1]: 3 b per 100 fruit | Alive larvae per 100 fruit [2]: 0.0 b per 100 fruit | Deep holes per 100 fruit [2]: 3 b per 100 fruit | % control on alive larvae [1]: 100.0 a % | % control on deep holes [1]: 81.3 c % | % control on alive larvae [2]: 100.0 a % | % control on deep holes [2]: 85.8 bc % | Alive larvae per 100 fruit [3]: 0.0 b per 100 fruit | Deep holes per 100 fruit [3]: 2 b per 100 fruit | % control on alive larvae [3]: 100.0 a % | % control on deep holes [3]: 93.0 bc % | Alive larvae per 100 fruit [4]: 0.0 b per 100 fruit | Deep holes per 100 fruit [4]: 2 b per 100 fruit | % control on alive larvae [4]: 100.0 a % | % control on deep holes [4]: 93.4 abc % | Alive larvae per 100 fruit [5]: 0.0 b per 100 fruit | Deep holes per 100 fruit [5]: 0 b per 100 fruit | Alive larvae per 100 fruit [6]: 0.0 b per 100 fruit | Deep holes per 100 fruit [6]: 0 b per 100 fruit | % control on alive larvae [5]: 100.0 a % | % control on deep holes [5]: 100.0 a % | % control on alive larvae [6]: 100.0 a % | % control on deep holes [6]: 100.0 a %

CCOP(=S)(OCC)Oc1nc(Cl)c(Cl)cc1Cl [Chlorpyriphos-Ethyl]
Alive larvae per 100 fruit (1080 g ai/ha, EC 480 g ai/L): 0.0 b per 100 fruit | Deep holes per 100 fruit (1080 g ai/ha, EC 480 g ai/L): 0 b per 100 fruit | % control on alive larvae (1080 g ai/ha, EC 480 g ai/L): 100.0 a % | % control on deep holes (1080 g ai/ha, EC 480 g ai/L): 100.0 a %
